We go through three molecules from patent US8445461B2, “Pharmaceutical composition for meniere's disease” (Setsuko Takeda, priority 2007, dated 2013).

Where “and” joins values, the source holds several entries; their conditions need not be identical. Equal values may be shown once. A value given as a limit tells only on which side of the number the result lay.

Data set [1] has as its system experimental endolymphatic hydrops. Kind of data set: Endolymphatic hydrops decompression effect: IR-L, IR-S and regression lines in the operated ear. Format: in vivo, guinea pigs. The conditions noted are these: active agent 2.8 g/kg oral, alone or with additive. As for the experimental part: The endolymphatic hydrops-decompression effect of saccharides or sugar alcohols was evaluated by assaying as below in triplicate. Firstly, guinea pigs received the surgical obliteration of the endolymphatic sac in the left ear to prepare “experimental model animals with endolymphatic hydrops”. The surgical obliteration of the endolymphatic sac was carried out by burning the extraskeletal portion in the endolymphatic sac with a bipolar electrocoagulator. An endolymphatic sac plays an important role in the absorption of endolymphatic fluid. The inhibition of absorption of endolymphatic fluid was caused by burning the endolymphatic sac to prepare an experimental endolymphatic hydrops. Those hydrops are progressively formed. The size of hydrops becomes constant 2 weeks to month after the surgery and maintained for several months. In detail, see Non-patent Reference 8 for the surgery.
After 1 month, they were divided into 3 groups: Group 2-1 (groups 1-6), 60 animals; Group 2-2 (groups 7-10), 40 animals; and Group 2-3 (groups 11-20), […]. The animals in Group 2-1 received saccharides or sugar alcohols alone (Reference Example 5). The animals in Group 2-2 orally received saccharides or sugar alcohols added polysaccharides. The animals in Group 2-3 received other combinations of saccharides or sugar alcohols added polysaccharides. Animals were sacrificed after the oral administration and the observation and the assessment the gastrointestinal condition, and observed the morphological change of the cochlea mainly in the operated side (left side), in particular of the endolymphatic hydrops decompression effect.
I were obtained left sides of the temporal bones immediately following fixation and kept them in 10% formalin solution for 10 days or more. They were decalcified with 5% trichloroacetic acid and dehydrated with alcohol in increasing concentration, then embedded in paraffin and celloidin. The prepared blocks were cut serially in the horizontal plane. The mid-modiolar sections were stained in hematoxylin and eosin and studied under a light microscope. For the quantitative assessment of changes of the endolymphatic space, the change ratios of the length of Reissner's membrane and the cross-sectional area of the scala media in each turn were measured from the mid-modiolar sections of the cochlea.
From these parameters, the increase ratios (%) of the length of Reissner's membrane (IR-L) and the cross-sectional area (%) of the scala media (IR-S) of a total of four turns were calculated according to the equation as described below:
The increase ratio of the length of Reissner's membrane (IR-L)=100×Σ(Lx−L*x)/ΣL*x (x: first, second, third and fourth turns)
The increase ratio of the cross-section area of the scala media (IR-S)=100×Σ(Sx−S*x)/ΣS*x (x: first, second, third and fourth turns)
Since almost no difference is shown in the regression lines of each group, it cannot be understood that there is the decompression effect of erythritol alone. When endolymphatic hydrops is formed, the cross-sectional area of scala media and the length of Reissner's membrane will increase. It can be assumed from FIG. 1 that there is statistically a primary correlation between both of them in the operated side in the control group. The regression lines are; IR-S (distilled water)=4.011+1.212*IR-L (distilled water); R2=0.987, IR-S (1 hour after)=5.409+1.1*IR-L (1 hour after); R2=0.903, IR-S (2 hours after)=1.125+0.992*IR-L (2 hours after); R2=0.98, IR-S (3 hours after)=2.407+1.309*IR-L (3 hours after); R2=0.974, IR-S (6 hours after)=7.36+1.147*IR-L (6 hours after); R2=0.895, IR-S (12 hours after)=8.089+1.152*IR-L (12 hours after); R2=0.918.
The difference of decompression effect on endolymphatic hydrops depending on dose of pectin added and time-course of the decompression effect can hardly determined by comparing and analyzing the average and standard deviation of IR-L and IR-S in the operated side in each groups. […]

The next data set concerns guinea pigs. Kind of data set: Reference Example 7: erythritol or isosorbitol added jelly, conditions of feces and gastrointestinal tract. It is filed as in vivo. From the text: As described hereinbefore, erythritol or isosorbitol as saccharides or sugar alcohols added jelly as a thickner were orally administered to 10 guinea pigs (280 to 350 g body weight) as shown in Table 41. The conditions of feces were observed.

The next data set relates to endolymphatic space. The conditions noted are these: oral; cited from earlier work.
The subject of data set [2] is guinea pigs excreting normal feces. The experiment in a line: Antidiarrheal effect: observation of feces after oral administration of saccharides or sugar alcohols with or without polysaccharides (Example 1). It is filed as in vivo. As for the experimental part: The criteria for analyzing the conditions of feces (hardness, shape and spaces of feces in the intestine) are as shown in Table 2:
The hardness and microscopic findings of feces from the group administered with distilled water were assessed as “Normal” scoring 3, the feces having normal shape and the shape could rather easily change by pushing with fingers were assessed as “Slightly soft” scoring 2, those of which the shape had already changed or it could quite easily change by pushed with fingers were assessed as “Soft” scoring 1, and those of which the shape is muddy or watery or of no shape were assessed “Muddy” scoring 0. To be precese, there are no watery feces because of the nature of diets and thus the muddy feces correspond to watery and muddy feces in human.
Since the muddy feces comprise large content of water, they induce the high abdominal pressure and the flatulence and distension. […] In the case of gas generation, it appears that noxious symptom such as the flatulence and distension are synergistically deteriorated. Therefore, we assessed not only based on the hardness of feces, but also the size, smoothness of the surface and amount of feces.
In these experiments, I observed is the diarrhea caused by saccharides or sugar alcohols and antidiarrhreal effect of saccharides. Guinea pigs orally received saccharides or sugar alcohols, for example tetrose such as erythritol, pentose such as xylitol or xylose, hexose such as isosorbitol or the like in combination with or without polysaccharides for observation of the feces up to 6 hours after the administration.
Guinea pigs (body weight 280 to 320 g, normal feces) were divided into four groups: for Group 1-a, xylitol alone (Reference Example 1), or xylitol and xanthan gum or pectin; for Group 1-b, xylose alone (Reference Example 2), xylose and xanthan gum or pectin; for Group 1-c, erythritol alone (Reference Example 3), erythritol and pectin, erythritol and xanthan gum, or erythritol, pectin and natural aluminum silicate gel or calcium carbonate; and for Group 1-d, isosorbitol alone (Reference Example 4), or isosorbitol and xanthan gum or pectin were orally administered, respectively. The compounds are dissolved in distilled water and 8 ml/kg of said solution were administered as a single dose.
The feces were observed during 6 hours after the administration. When the animals fell into the most serious condition, the hardness and shape of the feces from said animals were assessed as the effect by saccharides or sugar alcohols in the animals.

Data set [3] shares this test system. Described as above. It is filed as in vivo. The conditions noted are these: maltitol 2.8 g/kg oral, alone or with additive; average of 4 animals; score 0 muddy to 4 hard.
A further data set concerns endolymphatic hydrops. Particulars: systemic administration; cited from earlier work.
The mark [4] stands for this setting: operated ears, 3 hours after, listed as IB alone.
Setting [5] is: operated side, perfusion 3 hours after.
Where [6] appears, read: agent 2.8 g/kg oral + Jelly 0.1 g/kg, 5 animals.
[7] abbreviates: agent 2.8 g/kg oral + Jelly 0.25 g/kg, 5 animals.
The mark [8] stands for this setting: agent 2.8 g/kg oral, no additive dosage (agent alone).
Setting [9] is: active agent 1.4 g/kg oral, within 6 hours.
The mark [10] stands for this setting: active agent 2.1 g/kg oral, within 6 hours.
The mark [11] stands for this setting: active agent 2.8 g/kg oral, alone or with additive of the label.
The mark [12] stands for this setting: active agent 2.8 g/kg oral, alone or with additives of the label, most serious condition within 6 hours.
[13] abbreviates: active agent 3.5 g/kg oral, alone or with additive of the label, within 6 hours.
[14] abbreviates: active agent 5.6 g/kg oral, alone or with additive of the label, within 6 hours.
The mark [15] stands for this setting: maltitol 2.8 g/kg oral, alone or with additive of the label (Table 6).
Where [16] appears, read: maltitol 2.8 g/kg oral, alone or with additive, average of 4 animals, score 0 muddy to 4 hard.

Turning to `O[C@@H]1CO[C@H]2[C@@H]1OC[C@@H]2O` [Isosorbitol], in data set [1] (setting [4]), the “Regression line IR-S vs IR-L: Y-intercept” value was 7.143 and 6.542; the “Regression line IR-S vs IR-L: slope” value was 1.003 and 1.011. In addition, in data set [1] (setting [5]), the “IR-L (%) increase ratio of the length of Reissner's membrane” value worked out at 31.3 ± 36.5% and the “IR-S (%) increase ratio of the cross-sectional area of the scala media” value was found to be 40.9 ± 38.2%. In the data set with guinea pigs (setting [6]), the “Hardness of feces: Muddy (number of animals)” value (“Hardness of feces: Muddy” below) was found to be 1, the “Hardness of feces: Normal (number of animals)” value (from here on “Hardness of feces: Normal”) was found to be 2, the “Hardness of feces: Slightly soft (number of animals)” value (“Hardness of feces: Slightly soft” below) is given as 0 and the “Hardness of feces: Soft (number of animals)” value (from here on “Hardness of feces: Soft”) amounted to 2. Also, in the data set with guinea pigs (setting [7]), the “Hardness of feces: Muddy” value worked out at 0, the “Hardness of feces: Normal” value worked out at 2, the “Hardness of feces: Slightly soft” value is reported as 0 and the “Hardness of feces: Soft” value came to 3. Further, in the data set on guinea pigs (setting [8]), the “Hardness of feces: Muddy” value stood at 1, the “Hardness of feces: Normal” value came out at 2, the “Hardness of feces: Slightly soft” value stood at 2 and the “Hardness of feces: Soft” value stood at 3. Moreover, the “Time until exertion of effect after the oral administration” value in the data set on endolymphatic space is about 6 h. Further, in data set [2] (setting [9]), the “Hardness of feces: Muddy” value is 0, the “Hardness of feces: Normal” value is given as 3, the “Hardness of feces: Slightly soft” value is 1 and the “Hardness of feces: Soft” value came to 0. In addition, in data set [2] (setting [10]), the “Hardness of feces: Muddy” value came to 0, the “Hardness of feces: Normal” value is 0, the “Hardness of feces: Slightly soft” value came to 2 and the “Hardness of feces: Soft” value stood at 2. Besides, in data set [2] (setting [11]), the “Time after administration of the peak (most serious) diarrhea” value is “Three to four hours after”, the “Time after administration when diarrhea / softening of feces started” value amounted to 2 h and the “Time after administration when feces recovered to (almost) normal” value was 6 h. In addition, in data set [2] (setting [12]), the “Hardness of feces: Muddy” value is given as 1, the “Hardness of feces: Normal” value came out at 2, the “Hardness of feces: Slightly soft” value is given as 2 and the “Hardness of feces: Soft” value was 2. Further, in data set [2] (setting [13]), the “Hardness of feces: Muddy” value came to 3, the “Hardness of feces: Normal” value came to 0, the “Hardness of feces: Slightly soft” value is 0 and the “Hardness of feces: Soft” value was found to be 1. Moreover, in data set [2] (setting [14]), the “Hardness of feces: Muddy” value amounted to 3, the “Hardness of feces: Normal” value amounted to 0, the “Hardness of feces: Slightly soft” value was determined as 0 and the “Hardness of feces: Soft” value worked out at 0.

For `OC[C@@H](O)[C@@H](O[C@H]1O[C@H](CO)[C@@H](O)[C@H](O)[C@H]1O)[C@H](O)[C@@H](O)CO` [Maltitol, maltitol], in data set [3], the “Hardness of feces (average score), 12 hr after the administration” value came out at 0; the “Hardness of feces (average score), 18 hr after the administration” value worked out at 1.2; the “Hardness of feces (average score), 24 hr after the administration” value is 2.5. Further, in data set [2] (setting [11]), the “Abdominal distension / gas by inspections and palpations” value is listed as “abdominal distension was observed”; the “Time after administration when diarrhea / softening of feces started” value was 3 h; the “Time after administration when feces recovered to (almost) normal” value is at least 24 h. For the same molecule, in data set [2] (setting [15]), the “Hardness of feces: Hard (number of animals)” value turned out to be 0, the “Hardness of feces: Muddy” value was 6, the “Hardness of feces: Normal” value is 0 and the “Hardness of feces: Slightly soft” value is reported as 0. Moreover, the “Hardness of feces: Soft” value in data set [2] (setting [15]) is on record as 0. Further, in data set [2] (setting [16]), the “Hardness of feces (average score), 1 hr after the administration” value is reported as 3; the “Hardness of feces (average score), 2 hr after the administration” value is on record as 2.3; the “Hardness of feces (average score), 3 hr after the administration” value is 1.7; the “Hardness of feces (average score), 4 hr after the administration” value is listed as 0.2. In data set [2] (setting [16]), the “Hardness of feces (average score), 5 hr after the administration” value worked out at 0 and the “Hardness of feces (average score), 6 hr after the administration” value is 0.

As to `Cc1ccccc1C(=O)Nc1ccc(C(=O)N2CCCC(N(C)C)c3ccccc32)cc1` (centres unmarked) [OPC 31260], in the data set on endolymphatic hydrops, the “Decompression effect on endolymphatic hydrops” value is “did not reveal the decompression effect” and the “Effect in the normal ear” value is “formation of endolymphatic hydrops in the normal ear”.
